Assay results from patent US20240158446A1, “CYCLIC COMPOUND HAVING SELECTIVE INHIBITORY ACTION ON KRAS OVER HRAS AND NRAS” (CHUGAI SEIYAKU KABUSHIKI KAISHA, priority 2021, published 2024).

Key:
[1] = target: GDP-bound KRAS wild-type protein (Homo sapiens, UniProt P01116); test: Binding to KRAS by surface plasmon resonance (SPR), Single Cycle Kinetics; details: SPR, Single Cycle Kinetics, 1:1 binding model; GDP-bound KRAS wild-type protein; read-out: KRAS KD
[2] = target: GDP-bound NRAS wild-type protein (Homo sapiens, UniProt P01111); test: Binding to NRAS by surface plasmon resonance (SPR), Single Cycle Kinetics; details: SPR; GDP-bound NRAS wild-type protein vs GDP-bound KRAS wild-type protein; KD ratio class
[3] = target: GDP-bound HRAS wild-type protein (Homo sapiens, UniProt P01112); test: Binding to HRAS by surface plasmon resonance (SPR), Single Cycle Kinetics; details: SPR; GDP-bound HRAS wild-type protein vs GDP-bound KRAS wild-type protein; KD ratio class
[4] = system: human lung cancer strain NCI-H441;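 note: cell proliferation inhibition after four days measured by CellTiter-Glo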

Sequence of GDP-bound HRAS wild-type protein (P01112 whole entry): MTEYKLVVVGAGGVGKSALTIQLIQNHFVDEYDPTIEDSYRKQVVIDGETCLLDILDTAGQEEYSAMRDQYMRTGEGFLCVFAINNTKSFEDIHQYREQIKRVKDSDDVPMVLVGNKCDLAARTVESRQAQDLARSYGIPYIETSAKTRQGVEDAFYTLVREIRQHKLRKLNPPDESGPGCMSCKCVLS
Sequence of GDP-bound NRAS wild-type protein (P01111 whole entry): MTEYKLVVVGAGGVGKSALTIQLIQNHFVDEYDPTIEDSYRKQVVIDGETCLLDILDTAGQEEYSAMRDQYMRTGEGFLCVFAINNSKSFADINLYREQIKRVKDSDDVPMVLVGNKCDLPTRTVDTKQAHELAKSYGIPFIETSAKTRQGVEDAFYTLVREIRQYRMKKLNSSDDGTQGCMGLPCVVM
Sequence of GDP-bound KRAS wild-type protein (P01116 whole entry): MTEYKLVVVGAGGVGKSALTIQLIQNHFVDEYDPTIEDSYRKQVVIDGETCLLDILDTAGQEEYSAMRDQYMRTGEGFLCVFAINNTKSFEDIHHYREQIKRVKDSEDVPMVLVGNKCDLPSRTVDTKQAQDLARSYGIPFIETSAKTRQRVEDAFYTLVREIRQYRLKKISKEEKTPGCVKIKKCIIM

SMILES	Kd [1]	NRAS/KRAS (ratio of KD value for NRAS to KD value for KRAS) [2]	HRAS/KRAS (ratio of KD value for HRAS to KD value for KRAS) [3]	IC50 [4]
CCO[C@@H]1C[C@H]2C(=O)NC3(CCC3)C(=O)N(C)[C@@H](C(CC)CC)C(=O)N(C)[C@H](C(=O)N(C)C)CC(=O)N(C)[C@@H](CC)C(=O)N[C@@H]([C@@H](C)CC)C(=O)N(C)CC(=O)N(C)[C@H]3C/C=C\CCN(C3=O)[C@@H](Cc3ccc(C(F)(F)F)cc3)C(=O)N(C)CC(=O)N[C@@H](CCc3ccc4sccc4c3)C(=O)N2C1 [PP1223]	0.0012 µM	AA (a compound having 20 or more is denoted as AA)	A (a compound having 10 or more and less than 20 is denoted as A)	0.117 µM
CCC[C@H]1C(=O)N[C@@H]([C@@H](C)CC)C(=O)N(C)CC(=O)N(C)[C@H]2C/C=C\CCN(C2=O)[C@@H](Cc2ccc(C(F)(F)F)cc2)C(=O)N(C)CC(=O)N[C@@H](CCc2ccc3sccc3c2)C(=O)N2C[C@H](OCC)C[C@H]2C(=O)NC2(CCC2)C(=O)N(C)[C@@H](C(CC)CC)C(=O)N(C)[C@H](C(=O)N(C)C)CC(=O)N1C [PP1224]	0.0012 µM	A (a compound having 10 or more and less than 20 is denoted as A)	A (a compound having 10 or more and less than 20 is denoted as A)	0.122 µM
CCO[C@@H]1C[C@H]2C(=O)NC3(CCC3)C(=O)N(C)[C@@H](C(CC)CC)C(=O)N(C)[C@H](C(=O)N(C)C)CC(=O)N(C)[C@@H](CC(C)C)C(=O)N[C@@H]([C@@H](C)CC)C(=O)N(C)CC(=O)N(C)[C@H]3C/C=C\CCN(C3=O)[C@@H](Cc3ccc(C(F)(F)F)cc3)C(=O)N(C)CC(=O)N[C@@H](CCc3ccc4sccc4c3)C(=O)N2C1 [PP1225]	0.0011 µM	AA (a compound having 20 or more is denoted as AA)	A (a compound having 10 or more and less than 20 is denoted as A)	0.0925 µM
CCCCCC[C@H]1C(=O)N[C@@H]([C@@H](C)CC)C(=O)N(C)CC(=O)N(C)[C@H]2C/C=C\CCN(C2=O)[C@@H](Cc2ccc(C(F)(F)F)cc2)C(=O)N(C)CC(=O)N[C@@H](CCc2ccc3sccc3c2)C(=O)N2C[C@H](OCC)C[C@H]2C(=O)NC2(CCC2)C(=O)N(C)[C@@H](C(CC)CC)C(=O)N(C)[C@H](C(=O)N(C)C)CC(=O)N1C [PP1226]	0.0024 µM	AA (a compound having 20 or more is denoted as AA)	A (a compound having 10 or more and less than 20 is denoted as A)	0.106 µM
CCO[C@@H]1C[C@H]2C(=O)NC3(CCC3)C(=O)N(C)[C@@H](C(CC)CC)C(=O)N(C)[C@H](C(=O)N(C)C)CC(=O)N(C)[C@@H](CC3CC3)C(=O)N[C@@H]([C@@H](C)CC)C(=O)N(C)CC(=O)N(C)[C@H]3C/C=C\CCN(C3=O)[C@@H](Cc3ccc(C(F)(F)F)cc3)C(=O)N(C)CC(=O)N[C@@H](CCc3ccc4sccc4c3)C(=O)N2C1 [PP1227]	0.0016 µM	A (a compound having 10 or more and less than 20 is denoted as A)	A (a compound having 10 or more and less than 20 is denoted as A)	0.128 µM
CCO[C@@H]1C[C@H]2C(=O)NC3(CCC3)C(=O)N(C)[C@@H](C(CC)CC)C(=O)N(C)[C@H](C(=O)N(C)C)CC(=O)N(C)[C@@H](COC)C(=O)N[C@@H]([C@@H](C)CC)C(=O)N(C)CC(=O)N(C)[C@H]3C/C=C\CCN(C3=O)[C@@H](Cc3ccc(C(F)(F)F)cc3)C(=O)N(C)CC(=O)N[C@@H](CCc3ccc4sccc4c3)C(=O)N2C1 [PP1229]	0.0013 µM	A (a compound having 10 or more and less than 20 is denoted as A)	A (a compound having 10 or more and less than 20 is denoted as A)	0.144 µM
CCO[C@@H]1C[C@H]2C(=O)NC3(CCC3)C(=O)N(C)[C@@H](C(CC)CC)C(=O)N(C)[C@H](C(=O)N(C)C)CC(=O)N(C)[C@@H](CC)C(=O)N[C@@H]([C@@H](C)CC)C(=O)N(C)CC(=O)N(C)[C@H]3C/C=C\CCN(C3=O)[C@@H](Cc3ccc(C(F)(F)F)cc3)C(=O)N(C)CC(=O)N[C@@H](CCc3cc(F)c(Cl)c(F)c3)C(=O)N2C1 [PP1230]	0.00077 µM	A (a compound having 10 or more and less than 20 is denoted as A)	A (a compound having 10 or more and less than 20 is denoted as A)	0.11 µM
CCC[C@H]1C(=O)N[C@@H]([C@@H](C)CC)C(=O)N(C)CC(=O)N(C)[C@H]2C/C=C\CCN(C2=O)[C@@H](Cc2ccc(C(F)(F)F)cc2)C(=O)N(C)CC(=O)N[C@@H](CCc2cc(F)c(Cl)c(F)c2)C(=O)N2C[C@H](OCC)C[C@H]2C(=O)NC2(CCC2)C(=O)N(C)[C@@H](C(CC)CC)C(=O)N(C)[C@H](C(=O)N(C)C)CC(=O)N1C [PP1231]	0.00056 µM	AA (a compound having 20 or more is denoted as AA)	A (a compound having 10 or more and less than 20 is denoted as A)	0.0231 µM
CCO[C@@H]1C[C@H]2C(=O)NC3(CCC3)C(=O)N(C)[C@@H](C(CC)CC)C(=O)N(C)[C@H](C(=O)N(C)C)CC(=O)N(C)[C@@H](CC(C)C)C(=O)N[C@@H]([C@@H](C)CC)C(=O)N(C)CC(=O)N(C)[C@H]3C/C=C\CCN(C3=O)[C@@H](Cc3ccc(C(F)(F)F)cc3)C(=O)N(C)CC(=O)N[C@@H](CCc3cc(F)c(Cl)c(F)c3)C(=O)N2C1 [PP1232]	0.00067 µM	A (a compound having 10 or more and less than 20 is denoted as A)	A (a compound having 10 or more and less than 20 is denoted as A)	0.0597 µM
CCO[C@@H]1C[C@H]2C(=O)NC3(CCC3)C(=O)N(C)[C@@H](C(CC)CC)C(=O)N(C)[C@H](C(=O)N(C)C)CC(=O)N(C)[C@@H](CC3CC3)C(=O)N[C@@H]([C@@H](C)CC)C(=O)N(C)CC(=O)N(C)[C@H]3C/C=C\CCN(C3=O)[C@@H](Cc3ccc(C(F)(F)F)cc3)C(=O)N(C)CC(=O)N[C@@H](CCc3cc(F)c(Cl)c(F)c3)C(=O)N2C1 [PP1233]	0.00066 µM	AA (a compound having 20 or more is denoted as AA)	A (a compound having 10 or more and less than 20 is denoted as A)	0.0347 µM
CCO[C@@H]1C[C@H]2C(=O)NC3(CCC3)C(=O)N(C)[C@@H](C3CCCC3)C(=O)N(C)[C@@H](C(=O)N(C)C)CC(=O)N(C)[C@@H](CC)C(=O)N[C@@H]([C@@H](C)CC)C(=O)N(C)CC(=O)N(C)[C@H]3C/C=C\CCN(C3=O)[C@@H](Cc3ccc(C(F)(F)F)cc3)C(=O)N(C)CC(=O)N[C@@H](CCc3cc(F)c(C(F)(F)F)c(F)c3)C(=O)N2C1 [PP1234]	0.0038 µM	B (a compound having 3 or more and less than 10 is denoted as B)	C (A compound having a KD ratio of 0.1 or more and less than 3 is denoted as C)	0.398 µM
